Here are results for 1 compound from patent US20090149530A1 (priority 2007, published 2009).

The structures appear in SMILES notation.

The test system of one assay is Dengue-2 virus particles. Type of assay: binding. To be noted: Den-2; Averionol to Istrocyanidin bound.
The next assay concerns H5N1 virions. The assay is classed as binding, Avian influenza A virus (H5N1). To be noted: Averionol to Istrocyanidin bound.

In the case of `COc1cc(OC)c2c(=O)c(O)c(-c3ccc(OC)c(OC)c3)oc2c1` [Averionol], the “Aver:Istro Ratio” value in the assay on Dengue-2 virus particles came out at 3.7; in the assay with H5N1 virions it was 14.0.
